# Laboratory results as given in patent US20250241891A1, “TREATMENT OF ANXIETY” (GH RESEARCH IRELAND LIMITED, priority 2022, published 2025).
# Test system: patients with postpartum depression (PPD)
# Assay: Clinical trial of inhaled 5-MeO-DMT in postpartum depression (MADRS, BPRS, BIMF, PES, safety)
# Description: The single-arm, open-label clinical trial will involve 15 adult female patients with clinically diagnosed postpartum depression (PPD).
# The second dose (12 mg) will only be administered if: • a. […] The 6 mg dose was safe and well-tolerated according to the investigator, • c. Any psychoactive effects (PsE) of the prior dose have subsided, and • d. Pre-dose vital parameters and forced expiratory volume in one second (FEV1) are in normal range, or if outside of the normal range, are not clinically significant according to the investigator. • 3. Similarly, a third dose (18 mg) will only be administered if: • a. […] The 12 mg dose was safe and well-tolerated according to the investigator, and • c. Any PsE of the prior dose have subsided, and • d. Pre-dose vital parameters and forced expiratory volume in one second (FEV1) are in normal range, or if outside of the normal range, are not clinically significant according to the investigator.
# The patients will be assessed for a peak psychedelic experience (based on a patient-scored visual analogue scale, the PE scale), sedation, and other endpoints after dosing. Follow-up visits are planned for Day 1, and Day 7 after the dosing day.
# The following criteria must be met by all patients considered for clinical trial participation: • 1. Is female and in the age range between 18 and 45 years (inclusive) at screening. • 2. Has a body mass index (BMI) in the range of 18.5 and 35 kg/m^2 (inclusive) at screening. • 3. Meets the trial criteria for PPD as assessed by a trial psychiatrist or registered psychologist: • a. Diagnosis of Major Depressive Disorder without psychotic features, confirmed by the Mini-International Neuropsychiatric Interview (MINI), with peri-partum onset that began no earlier than gestation and no later than the first 4 weeks postpartum. • b. Has a Montgomery-Åsberg Depression Rating Scale (MADRS) total score of equal to or greater than 28 at screening and pre-dose on Day 0. • 6. […] Patients must have a negative pregnancy test at screening and on the pre-test day (Day −1). • 5. Is willing to delay start of other antidepressant or anxiety medication until after the end of the trial at Day 7 and agrees to keep any psychotherapy unchanged during the trial.
# A potential patient who meets any of the following key exclusion criteria will be excluded from participation in this trial: • 1. Has, based on history, psychiatric assessment, and evaluation of the MINI, a current or prior diagnosis of bipolar disorder, a manic or hypomanic episode, a psychotic disorder, Major Depressive Disorder (MDD) or other mood disorder with psychotic features, obsessive compulsive disorder, post-traumatic stress disorder (PTSD), autism spectrum disorder, borderline personality disorder, schizophrenia, delusional disorder, paranoid personality disorder, schizoaffective disorder, clinically significant intellectual disability, or any other psychiatric comorbidity that renders the patient unsuitable for the trial according to the investigator's judgment. • 2. Has one or more first or second degree relatives with a current or previously diagnosed bipolar disorder, psychotic disorder or other mood disorder (including MDD) with psychotic features. • 3. Is in the judgement of a trial psychiatrist or registered psychologist, at significant risk for suicide based on history, psychiatric assessment, and evaluation of suicidal ideation and suicidal behaviour based on the Columbia-Suicide Severity Rating Scale (C-SSRS). • 4. Has taken anti-depressive medication within 14 days or 5 half-lives (whichever is longer) prior to dosing (exception: within the last 5 weeks in the case of fluoxetine). • 5.
# [1] = PPD n=1, IDR 6+12 mg inhaled, day 1, baseline 5
# [2] = PPD n=1, IDR 6+12 mg inhaled, day 1, baseline 6
# [3] = PPD n=1, IDR 6+12 mg inhaled, day 1, baseline 7
# [4] = PPD n=1, IDR 6+12 mg inhaled, day 7, baseline 0
# [5] = PPD n=1, IDR 6+12 mg inhaled, day 7, baseline 1
# [6] = PPD n=1, IDR 6+12 mg inhaled, day 7, baseline 2
# [7] = PPD n=1, IDR 6+12 mg inhaled, day 7, baseline 3
# [8] = PPD n=1, IDR 6+12 mg inhaled, day 7, baseline 4
# [9] = PPD n=1, IDR 6+12 mg inhaled, day 7, baseline 5
# [10] = PPD n=1, IDR 6+12 mg inhaled, day 7, baseline 6
# [11] = PPD n=1, IDR 6+12 mg inhaled, day 7, baseline 7
# [12] = PPD n=1, IDR 6+12 mg inhaled, discharge, baseline 1
# [13] = PPD n=1, IDR 6+12 mg inhaled, discharge, baseline 2
# [14] = PPD n=1, IDR 6+12 mg inhaled, discharge, baseline 5
# [15] = PPD n=1, IDR 6+12 mg inhaled, discharge, baseline 6
# [16] = PPD n=1, IDR 6+12 mg inhaled, discharge, baseline 7
smiles,measurement,setting,value
COc1ccc2[nH]cc(CCN(C)C)c2c1 [5-MeO-DMT],MADRS Reduced Sleep improvement,[1],5
same,MADRS Reduced Sleep score,[1],0
same,BPRS Depressive Mood improvement,[2],5
same,BPRS Depressive Mood score,[2],1
same,BPRS Guilt Feelings score,[2],1
same,BPRS Guilt feelings improvement,[2],5
same,BPRS Somatic Concern improvement,[2],5
same,BPRS Somatic Concern score,[2],1
same,BPRS Tension improvement,[2],5
same,BPRS Tension score,[2],1
same,BPRS Anxiety improvement,[3],6
same,BPRS Anxiety score,[3],1
same,MADRS Concentration Difficulties improvement,[4],0
same,MADRS Concentration Difficulties score,[4],0
same,MADRS Reduced appetite improvement,[4],0
same,MADRS Reduced appetite score,[4],0
same,MADRS Suicidal Thoughts improvement,[4],0
same,MADRS Suicidal Thoughts score,[4],0
same,BPRS Blunted Affect score,[5],1
same,BPRS Blunted affect improvement,[5],0
same,BPRS Conceptual disorganization improvement,[5],0
same,BPRS Conceptual disorganization score,[5],1
same,BPRS Disorientation improvement,[5],0
same,BPRS Disorientation score,[5],1
same,BPRS Grandiosity improvement,[5],0
same,BPRS Grandiosity score,[5],1
same,BPRS Hallucinatory behaviour improvement,[5],0
same,BPRS Hallucinatory behaviour score,[5],1
same,BPRS Hostility improvement,[5],0
same,BPRS Hostility score,[5],1
same,BPRS Mannerisms and Posturing improvement,[5],0
same,BPRS Mannerisms and Posturing score,[5],1
same,BPRS Motor retardation improvement,[5],0
same,BPRS Motor retardation score,[5],1
same,BPRS Suspiciousness improvement,[5],0
same,BPRS Suspiciousness score,[5],1
same,BPRS Uncooperativeness improvement,[5],0
same,BPRS Uncooperativeness score,[5],1
same,BPRS Unusual Thought Content improvement,[5],0
same,BPRS Unusual Thought Content score,[5],1
same,BPRS Excitement improvement,[6],1
same,BPRS Excitement score,[6],1
same,MADRS Inability to Feel improvement,[7],3
same,MADRS Inability to Feel score,[7],0
same,MADRS Lassitude improvement,[7],3
same,MADRS Lassitude score,[7],0
same,MADRS Pessimistic Thoughts improvement,[8],4
same,MADRS Pessimistic Thoughts score,[8],0
same,MADRS Reported sadness improvement,[8],4
same,MADRS Reported sadness score,[8],0
same,BPRS Emotional Withdrawal score,[9],1
same,BPRS Emotional withdrawal improvement,[9],4
same,MADRS Apparent sadness improvement,[9],5
same,MADRS Apparent sadness score,[9],0
same,MADRS Inner Tension improvement,[9],4
same,MADRS Inner Tension score,[9],1
same,MADRS Reduced Sleep improvement,[9],5
same,MADRS Reduced Sleep score,[9],0
same,BPRS Depressive Mood improvement,[10],5
same,BPRS Depressive Mood score,[10],1
same,BPRS Guilt Feelings score,[10],1
same,BPRS Guilt feelings improvement,[10],5
same,BPRS Somatic Concern improvement,[10],5
same,BPRS Somatic Concern score,[10],1
same,BPRS Tension improvement,[10],5
same,BPRS Tension score,[10],1
same,BPRS Anxiety improvement,[11],6
same,BPRS Anxiety score,[11],1
same,BPRS Blunted Affect score,[12],1
same,BPRS Blunted affect improvement,[12],0
same,BPRS Conceptual disorganization improvement,[12],0
same,BPRS Conceptual disorganization score,[12],1
same,BPRS Disorientation improvement,[12],0
same,BPRS Disorientation score,[12],1
same,BPRS Grandiosity improvement,[12],0
same,BPRS Grandiosity score,[12],1
same,BPRS Hallucinatory behaviour improvement,[12],0
same,BPRS Hallucinatory behaviour score,[12],1
same,BPRS Hostility improvement,[12],0
same,BPRS Hostility score,[12],1
same,BPRS Mannerisms and Posturing improvement,[12],0
same,BPRS Mannerisms and Posturing score,[12],1
same,BPRS Motor retardation improvement,[12],0
same,BPRS Motor retardation score,[12],1
same,BPRS Suspiciousness improvement,[12],0
same,BPRS Suspiciousness score,[12],1
same,BPRS Uncooperativeness improvement,[12],0
same,BPRS Uncooperativeness score,[12],1
same,BPRS Unusual Thought Content improvement,[12],0
same,BPRS Unusual Thought Content score,[12],1
same,BPRS Excitement improvement,[13],1
same,BPRS Excitement score,[13],1
same,BPRS Emotional Withdrawal score,[14],1
same,BPRS Emotional withdrawal improvement,[14],4
same,BPRS Depressive Mood improvement,[15],5
same,BPRS Depressive Mood score,[15],1
same,BPRS Guilt Feelings score,[15],1
same,BPRS Guilt feelings improvement,[15],5
same,BPRS Somatic Concern improvement,[15],5
same,BPRS Somatic Concern score,[15],1
same,BPRS Tension score,[15],1
same,BPRS Anxiety improvement,[16],6
same,BPRS Anxiety score,[16],1
same,"ECG, safety laboratory analyses and CADSS assessments","PPD n=1, ECG 3 hours, laboratory 7 days, CADSS 3 hours, 1 day and 7 days",unremarkable
